Results from paper PMC11912471 (Journal of Medicinal Chemistry, 2025).
Values joined by “and” are separate entries in the source; they are usually repeats but may differ in a detail not shown here. Equal entries are not always repeated. Structures can show the parent of a compound that is named as a salt.

Experiments:
[1] = molecular target: T1, purified human ODC enzyme (Homo sapiens, UniProt P11926); test: In vitro ODC enzyme activity assay; type: biochemical; settings: for inhibition at 50 µM: read-out: ODC biochemical inhibition % (50 μM); for IC50: read-out: ODC biochemical inhibition IC50; for lower activity relative to racemic 7: ratio of ODC IC50s
T1 construct: His6 (C); made in house; host or cells: E. coli BL21(DE3)
T1 sequence (P11926 1-461): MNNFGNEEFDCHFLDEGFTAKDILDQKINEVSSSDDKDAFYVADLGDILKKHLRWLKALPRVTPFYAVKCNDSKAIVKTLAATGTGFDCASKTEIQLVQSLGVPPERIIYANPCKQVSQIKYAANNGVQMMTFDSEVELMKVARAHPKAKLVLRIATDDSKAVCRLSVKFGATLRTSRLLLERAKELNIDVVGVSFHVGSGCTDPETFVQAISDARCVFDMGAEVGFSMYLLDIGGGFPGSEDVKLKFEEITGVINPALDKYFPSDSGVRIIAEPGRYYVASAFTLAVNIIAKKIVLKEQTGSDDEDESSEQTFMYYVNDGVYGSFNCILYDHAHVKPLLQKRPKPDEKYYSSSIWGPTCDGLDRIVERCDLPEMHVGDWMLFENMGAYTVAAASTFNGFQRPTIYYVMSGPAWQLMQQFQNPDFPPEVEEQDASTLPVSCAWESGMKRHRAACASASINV
Protocol: (§1) Our strategy to identify novel ODC inhibitors was to first screen new analogs for ODC inhibition at 50 μM using our in vitro enzyme activity assay and purified human ODC (Table 1). Those showing significant inhibition were then titrated to provide an ODC IC50 followed by cell-based screening against both cancer (Kelly neuroblastoma) and noncancerous (neonatal fibroblasts) cell lines. For the cancer cell line, higher cytotoxicity was desired and for the noncancerous cell line counter screen, lower cytotoxicity was desired.
In vitro ODC activity was measured using 100 ng of purified human ODC enzyme, as we previously described.[53],[99] ODC was incubated with increasing concentrations of inhibitors for 30 min at room temperature in a buffer containing 25 mM Tris and 0.1 mM EDTA. […] In the cell-based ODC activity assay, Kelly neuroblastoma cells that were treated with 500 μM inhibitors were harvested in a buffer containing 25 mM Tris HCl, 0.1 mM EDTA, and 2.5 mM DTT. […] For both the in vitro and cell-based assay, the microcentrifuge tubes were then placed into scintillation vials containing a piece of filter paper saturated with 200 μL of 0.1 M NaOH to capture the release of radiolabeled carbon dioxide. The samples were incubated in a 37 °C incubator while shaking for 30 min (in vitro) or 2 h (cell-based). The enzymatic reaction was stopped by adding 250 μL of 5 M sulfuric acid to each sample and incubating at 37 °C while shaking for 30 min. The microcentrifuge tubes were removed from the scintillation vials, and 5 mL of scintillation fluid was added. Disintegrations per minute (DPM) of each sample was measured using a TriCarb liquid scintillation counter (PerkinElmer). The specific ODC activity is expressed as nmol CO2/min/mg protein (in vitro) or pmol CO2/min/mg protein (cell-based). The individual ODC inhibitor IC50 values were determined using Graphpad Prism 8.

[2] = test system: Kelly neuroblastoma cells; test: Sulforhodamine B (SRB) cytotoxicity assay, Kelly neuroblastoma cells; type: cell-based; settings: for activity against Kelly neuroblastoma cells (in words): 72 h; for activity against Kelly neuroblastoma cells (in words) / Cell cytotoxicity (72 hr @ 500 μM) Kelly Neuroblastoma: 500 μM; for Cell cytotoxicity (72 hr @ 500 μM) Kelly Neuroblastoma: percent cytotoxicity; for cytotoxicity at 500 µM: Kelly, 72 hrs @500 µM, supplement csv, read-out: Kelly Neuroblasoma Cells (72 hrs @500 µM) %cytotoxicity
Protocol: as §1
(§2) Normal primary human neonatal fibroblast cells (ATCC) were maintained in DMEM medium (Gibco) supplemented with 10% heat-inactivated fetal bovine serum (Hyclone), penicillin (100 IU/mL), and streptomycin (100 μg/mL), nonessential amino acids (0.1 mM) and sodium pyruvate (1 mM). Kelly neuroblastoma cells (Sigma-Aldrich) were maintained in RPMI medium (Corning) supplemented with 10% heat-inactivated fetal bovine serum (Hyclone), penicillin (100 IU/mL), and streptomycin (100 μg/mL). Cell lines were routinely monitored for mycoplasma contamination using the MycoAlert PLUS Mycoplasma Detection Kit (Lonza).
(§3) The colorimetric sulforhodamine B (SRB) assay was used to measure cytotoxicity following treatment with ODC inhibitors. Briefly, Kelly neuroblastoma cells and normal primary human neonatal fibroblast cells were plated in transparent flat 96-well plates and allowed to attach overnight. Cells were treated with control or 500 μM ODC inhibitor for 72 h. Cells were then fixed with 10% TCA at 4 °C for 1 h, washed with deionized water, and dried at room temperature. Cells were stained with 100 μL of 0.4% SRB in 1% acetic acid for 20 min at room temperature, rinsed five times with 1% acetic acid and allowed to dry at room temperature. One hundred μL of 10 mM Tris–HCl pH 7.0 was added to each well, shaken for 10 min at room temperature and absorbance was read at 540 nm. Absorbance values were normalized relative to control readings and converted to percentage by multiplying by one hundred. The percent cytotoxicity was then determined by subtracting the relative percentage of the ODC inhibitor treated readings from the control which is 100%.

[3] = Sulforhodamine B (SRB) cytotoxicity assay, neonatal fibroblasts; type: cell-based, human; settings: human, normal primary neonatal fibroblast cells; 72 hrs @500 µM; supplement csv
Protocol: as §1, §2, §3

[4] = test system: normal primary human neonatal fibroblast cells; test: as above; type: cell-based; settings: 500 μM; for cytotoxic activity against neonatal fibroblasts (in words): 72 h; for Cell cytotoxicity (72 hr @ 500 μM) Neonatal Fibroblasts: percent cytotoxicity
Protocol: as §1, §2, §3

[5] = cited from earlier work
[6] = test system: ODC; settings: even at high (>500 μM) concentrations; no reference given; cited from earlier work

Compound | LE ([1]; ligand efficiency) | inhibition at 50 µM [1] [%] | IC50 [1] | LE ([1]; supplement csv) | relative activity of S-enantiomer over R-enantiomer ([1]; 10-S-PLP vs 10-R-PLP, ODC IC50) [fold] | ODC inhibitory activity (in words) [1] | lower activity relative to racemic 7 [1] [x] | activity against Kelly neuroblastoma cells (in words) [2] | Cell cytotoxicity (72 hr @ 500 μM) Kelly Neuroblastoma [2] [%] | cytotoxicity at 72 h, 500 µM [3] [%] | cytotoxic activity against neonatal fibroblasts (in words) [4] | Cell cytotoxicity (72 hr @ 500 μM) Neonatal Fibroblasts [4] [%] | cytotoxicity at 500 µM [2] [%] | pKa of amino group ([5]; ornithine α-amino group, putrescine nitrogen) | pKa printed in Figure 1 ([5]; ornithine α-amino, putrescine) | inhibition of ODC (in words) [6]
Cc1ncc(COP(=O)(O)O)c(/C=N/OC[C@@H]2CCNC2)c1O [10-R-PLP] | 0.41 | 96 | 160 nM | 0,41 |  |  |  | disappointing neuroblastoma cellular activities | 52±6 | 36 | generally more toxic | 36±17 |  |  |  | 
Cc1ncc(COP(=O)(O)O)c(/C=N/OCC2(F)CCNC2)c1O (centres unmarked) [11-PLP, ({4-[(E)-{[(3-fluoropyrrolidin-3-yl)methoxy]imino}methyl]-5-hydroxy-6-methylpyridin-3-yl}methoxy)phosphonic acid] | 0.41 | 92 | 90 nM | 0,41 |  |  |  | disappointing neuroblastoma cellular activities | 9±13 | 57 | generally more toxic | 57±20 |  |  |  | 
Cc1ncc(COP(=O)(O)O)c(/C=N/OCCCN)c1O [APA-PLP, ({4-[(E)-[(3-Aminopropoxy)imino]methyl]-5-hydroxy-6-methylpyridin-3-yl}methoxy)phosphonic Acid] | 0.45 | 99 | 150 nM | 0,45 |  |  |  | disappointing neuroblastoma cellular activities | 24±9 | 12 | generally more toxic | 12±19 |  |  |  | 
NOCCC1CCCCN1 (centres unmarked) [Compound 6] |  | 3 |  |  |  | no ODC activity |  |  |  |  |  |  |  |  |  | 
NOCC1CCCNC1 (centres unmarked) [Compound 7, 3-[(Aminooxy)methyl]piperidine Dihydrochloride] |  | 99 | ~180 nM and 180 nM |  |  |  |  |  | 54±9 | 3 | reduced cytotoxic activity | 3±6 | 54 |  |  | 
NOC[C@@H]1CCCNC1 [Compound 7-R] |  | 99 | 770 nM |  |  |  | ~4 |  | 49±5 | 0 | reduced cytotoxic activity | 0±14 | 49 |  |  | 
NOCC1CNCCO1 (centres unmarked) [Compound 8] |  | 95 | 780 nM |  |  |  |  |  | 37±11 | 0 | reduced cytotoxic activity | 0±11 | 37 |  |  | 
NOC1CCNCC1 [Compound 9] |  | 0 |  |  |  | no inhibitory activity |  |  |  |  |  |  |  |  |  | 
NOC[C@H]1CCNC1 [Compound 10-S] |  | 99 | 100 nM |  |  |  |  |  | 52±18 | 9 | reduced cytotoxic activity | 9±8 | 52 |  |  | 
NCCCCN [putrescine] |  |  |  |  |  |  |  |  |  |  |  |  |  | ~10.5 | ~ 10 | not an inhibitor

More lines, main results first:

LE ([1]; ligand efficiency) | inhibition at 50 µM [1] [%] | IC50 [1] | LE ([1]; supplement csv) | relative activity of S-enantiomer over R-enantiomer ([1]; 10-S-PLP vs 10-R-PLP, ODC IC50) [fold] | ODC inhibitory activity (in words) [1] | lower activity relative to racemic 7 [1] [x] | Compound | activity against Kelly neuroblastoma cells (in words) [2] | Cell cytotoxicity (72 hr @ 500 μM) Kelly Neuroblastoma [2] [%] | cytotoxicity at 72 h, 500 µM [3] [%] | cytotoxic activity against neonatal fibroblasts (in words) [4] | Cell cytotoxicity (72 hr @ 500 μM) Neonatal Fibroblasts [4] [%] | cytotoxicity at 500 µM [2] [%] | pKa of amino group ([5]; ornithine α-amino group, putrescine nitrogen) | pKa printed in Figure 1 ([5]; ornithine α-amino, putrescine) | inhibition of ODC (in words) [6]
0.47 | 93 | 30 nM | 0,47 | 8 |  |  | Cc1ncc(COP(=O)(O)O)c(/C=N/OC[C@H]2CCNC2)c1O [10-S-PLP, ({5-hydroxy-6-methyl-4-[(E)-({[(3S)-pyrrolidin-3-yl]methoxy}imino)methyl]pyridin-3-yl}methoxy)phosphonic acid] | disappointing neuroblastoma cellular activities | 11±4 | 40 | generally more toxic | 40±61 |  |  |  | 
 | 99 | 700 nM |  |  |  | ~4 | NOC[C@H]1CCCNC1 [Compound 7-S] |  | 65±6 | 0 | reduced cytotoxic activity | 0±15 | 65 |  |  | 
 | 99 | 210 nM |  |  |  |  | NOC[C@@H]1CCNC1 [Compound 10-R] |  | 73±12 | 16 | reduced cytotoxic activity | 16±13 | 73 |  |  | 
 | 99 | 360 nM |  |  |  |  | NOCC1CCNC1 (centres unmarked) [Compound 10] |  | 66±8 | 14 | reduced cytotoxic activity | 14±10 | 66 |  |  | 
